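Compound exposure: 48 hours, 5 concentrations, 96-well plates. TGI: total growth inhibition.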
How the values were obtained:
Assay in all cases: NCI tumour cell line growth inhibition, 48 h
CCRF-CEM leukemia = system: CCRF-CEM leukemia
MOLT-4 leukemia = system: MOLT-4 leukemia
SK-MEL-2 melanoma = system: SK-MEL-2 melanoma
SNB-75 CNS = system: SNB-75 CNS
TK-10 renal = system: TK-10 renal
RPMI-8226 leukemia = system: RPMI-8226 leukemia
HOP-62 NSCLC = system: HOP-62 NSCLC
UO-31 renal = system: UO-31 renal
HOP-92 NSCLC = system: HOP-92 NSCLC
EKVX NSCLC = system: EKVX NSCLC
NCI-H460 lung = system: NCI-H460 lung
A549 NSCLC = system: A549 NSCLC
UACC-62 melanoma = system: UACC-62 melanoma
786-0 renal = system: 786-0 renal
KM12 colon = system: KM12 colon
SF-539 CNS = system: SF-539 CNS
OVCAR-8 ovarian = system: OVCAR-8 ovarian
RXF 393 renal = system: RXF 393 renal

Structure (SMILES)	TGI (CCRF-CEM leukemia)	TGI (MOLT-4 leukemia)	TGI (SK-MEL-2 melanoma)	TGI (SNB-75 CNS)	TGI (TK-10 renal)	TGI (RPMI-8226 leukemia)	TGI (HOP-62 NSCLC)	TGI (UO-31 renal)	TGI (HOP-92 NSCLC)	TGI (EKVX NSCLC)	TGI (NCI-H460 lung)	TGI (A549 NSCLC)	TGI (UACC-62 melanoma)	TGI (786-0 renal)	TGI (KM12 colon)	TGI (SF-539 CNS)	TGI (OVCAR-8 ovarian)	TGI (RXF 393 renal)
O=C1CCCCC/C1=C\c1ccc(Cl)cc1	50.3 µM	95.1 µM	> 100 µM	81.3 µM	> 100 µM	82.2 µM	> 100 µM	> 100 µM	98 µM	> 100 µM	> 100 µM	> 100 µM	> 100 µM	> 100 µM	51.4 µM			
O=C1[C@@H]2C[C@@H](O)CN2C(=O)c2ccccc2N1CCCO		> 100 µM	> 100 µM	> 100 µM	> 100 µM	> 100 µM	> 100 µM	> 100 µM	> 100 µM	> 100 µM	> 100 µM	> 100 µM	> 100 µM	> 100 µM	> 100 µM	> 100 µM	> 100 µM	
N#Cc1cc([N+](=O)[O-])ccc1NC(=O)/C(=N/N)C(C(=O)c1ccc(Cl)c(Cl)c1)C1OC(=O)c2ccccc21 (stereo unspecified)	> 100 µM	> 100 µM	> 100 µM			> 100 µM	> 100 µM	> 100 µM	60 µM	> 100 µM	> 100 µM	> 100 µM	> 100 µM	> 100 µM	> 100 µM	> 100 µM	> 100 µM	> 100 µM
Nc1ncnc2c1cnn2Cc1cn(COCC(O)CO)nn1 (stereo unspecified)	> 100 µM		> 100 µM		> 100 µM		> 100 µM	> 100 µM	> 100 µM	> 100 µM		> 100 µM	> 100 µM	> 100 µM	> 100 µM	> 100 µM	> 100 µM	
O=C(Cc1ccccc1)NNc1nc(NNC(=O)c2ccncc2)nc(Nc2cccc(Cl)c2)n1	> 10 µM	> 10 µM		> 10 µM	> 10 µM	> 10 µM	> 10 µM		> 10 µM	> 10 µM	> 10 µM	> 10 µM	> 10 µM	> 10 µM	> 10 µM	> 10 µM	> 10 µM	
O=C1C(=Nc2ccccc2)Oc2cc(O)ccc21	> 100 µM	> 100 µM	> 100 µM	> 100 µM	> 100 µM		> 100 µM	> 100 µM		> 100 µM	> 100 µM	> 100 µM	> 100 µM	> 100 µM	> 100 µM	> 100 µM	> 100 µM	> 100 µM
C[n+]1cccc2ccc(OC(=O)c3ccccc3)cc21		> 100 µM	> 100 µM	> 100 µM	> 100 µM	> 100 µM	> 100 µM	> 100 µM	> 100 µM	> 100 µM		> 100 µM	> 100 µM	> 100 µM	> 100 µM	> 100 µM	> 100 µM	> 100 µM
COc1cc(/C=C2\C(=O)N(Cc3ccccc3)C(c3ccccc3)S2(=O)=O)cc(OC)c1OC (stereo unspecified)	> 100 µM	14.7 µM	> 100 µM		> 100 µM		> 100 µM	> 100 µM	> 100 µM	> 100 µM	> 100 µM	> 100 µM	> 100 µM	> 100 µM	> 100 µM		> 100 µM	> 100 µM
O=C(CCCN1CCC2(CC1)CC(=O)N(N1CCCCCC1)C2=O)c1ccc(F)cc1	> 100 µM	> 100 µM	> 100 µM	> 100 µM	> 100 µM	> 100 µM	> 100 µM	> 100 µM		> 100 µM		> 100 µM	> 100 µM	38.1 µM		> 100 µM	34.7 µM	97.9 µM
CC(C)(C)OC(=O)N(CCNS(=O)(=O)c1cccc2cnccc12)CCC(=O)ON1C(=O)CCC1=O		> 100 µM	> 100 µM	> 100 µM	> 100 µM	> 100 µM	> 100 µM	> 100 µM	> 100 µM	> 100 µM	> 100 µM	> 100 µM	> 100 µM	> 100 µM			> 100 µM	> 100 µM
C=CCCCC1CCCNC1=S (stereo unspecified)		> 100 µM	> 100 µM	> 100 µM	> 100 µM	> 100 µM	> 100 µM	> 100 µM	> 100 µM	> 100 µM	> 100 µM	> 100 µM	> 100 µM	> 100 µM	> 100 µM	> 100 µM	> 100 µM	> 100 µM
CC(=O)N(CN1C(=O)CCC1C(=O)O)c1cccc(O)c1 (stereo unspecified)	> 100 µM	> 100 µM	> 100 µM	> 100 µM	> 100 µM	> 100 µM	> 100 µM	> 100 µM	> 100 µM	> 100 µM	> 100 µM	> 100 µM	> 100 µM	> 100 µM	> 100 µM	> 100 µM	> 100 µM	
CC(=O)O[C@H]1CCn2c3c(c(C)c21)C(=O)C(N1CC1)=C(C)C3=O	> 10 µM	> 10 µM	> 10 µM	> 10 µM	> 10 µM	> 10 µM	> 10 µM			> 10 µM	> 10 µM	7.83 µM	> 10 µM	> 10 µM	> 10 µM	> 10 µM	> 10 µM	
CN(C)CCn1c(=O)c2ccc3c4c(nn3CCN(C)C)c3cc(O)ccc3n(c1=O)c24	0.656 µM	0.127 µM	0.576 µM	1.42 µM	0.837 µM	0.406 µM	0.566 µM	0.675 µM		0.366 µM	0.254 µM	1.54 µM	0.585 µM	0.424 µM	3.5 µM	3.15 µM	0.124 µM	0.977 µM
O=C1CC(C(=O)N2CCCCC2)n2c(=O)n(-c3ccccc3)c(=O)n2C1 (stereo unspecified)				> 100 µM	> 100 µM		> 100 µM	> 100 µM		> 100 µM	> 100 µM	> 100 µM	> 100 µM	> 100 µM	> 100 µM	> 100 µM	> 100 µM	> 100 µM
CC(=O)N1N(c2ccc([N+](=O)[O-])cc2)C(=O)C1(C)C	33.3 µM	43.4 µM	37.4 µM	37.7 µM	36.2 µM		40.4 µM	32.4 µM		34.5 µM	> 100 µM		42.3 µM	36.6 µM	35.4 µM	49.7 µM	59 µM	32.3 µM
c1ccc(C2OCC(OC3CCCCO3)CO2)cc1 (stereo unspecified)		68.2 µM	> 100 µM		> 100 µM	> 100 µM	> 100 µM	> 100 µM	> 100 µM	> 100 µM	> 100 µM	> 100 µM	> 100 µM	> 100 µM		> 100 µM	> 100 µM	
CC12c3c4cc(Br)cc3Oc3cc(Br)cc(c31)Oc1cc(Br)cc(c12)O4		> 100 µM	67.8 µM	31.3 µM	> 100 µM	> 100 µM	> 100 µM	> 100 µM		82.6 µM	> 100 µM	> 100 µM	> 100 µM	44.4 µM	> 100 µM	> 100 µM	> 100 µM	
COc1ccc(-c2cc(=O)c3cc4c(cc3[nH]2)OCO4)cc1	> 100 µM	> 100 µM	> 100 µM	> 100 µM	> 100 µM	> 100 µM	> 100 µM	> 100 µM		41.3 µM	> 100 µM	> 100 µM	> 100 µM	> 100 µM		> 100 µM	> 100 µM	> 100 µM
C/C(CC1SCCCS1)=C(/C)CC1SCCCS1	> 100 µM	> 100 µM	> 100 µM	> 100 µM	> 100 µM	> 100 µM	> 100 µM	> 100 µM		> 100 µM	> 100 µM	> 100 µM	> 100 µM	> 100 µM	> 100 µM	> 100 µM	> 100 µM	> 100 µM
O=C(/C=C/c1ccc(Cl)cc1)c1cccs1	98.1 µM	52.8 µM	> 100 µM	43.4 µM	47 µM	8.29 µM	89.8 µM	31.9 µM		68 µM	35.4 µM	83.5 µM	49.2 µM	30 µM	31.1 µM	> 100 µM	56.2 µM	
O=c1c2cn[nH]c2nc2scc(-c3ccc(Cl)cc3)n12	> 100 µM	> 100 µM	> 100 µM	> 100 µM	> 100 µM	> 100 µM	> 100 µM	> 100 µM		> 100 µM	> 100 µM	> 100 µM	> 100 µM	> 100 µM	> 100 µM	> 100 µM	> 100 µM	> 100 µM
CCOc1ncn(-c2ccc(NC(=S)NC34CC5CC(CC(C5)C3)C4)cc2)n1	> 100 µM	> 100 µM		76.2 µM	> 100 µM	> 100 µM	> 100 µM	> 100 µM	60.6 µM	> 100 µM	> 100 µM	> 100 µM	> 100 µM	> 100 µM	> 100 µM	> 100 µM	64.3 µM	
COC(=O)C1=C(C)NC(C)=C(C(=O)OC)C1c1cccc(NO)c1	> 100 µM		30.8 µM		27.7 µM	> 100 µM	> 100 µM	23.6 µM	23.8 µM	70.9 µM	31.4 µM	> 100 µM	34.3 µM	28.3 µM	29.4 µM	32.6 µM	30.2 µM	27.1 µM
COC(=O)C1CCC(=O)N1C(c1ccccc1)c1cc(OC)c(OC)c(OC)c1 (stereo unspecified)	> 100 µM	89.3 µM			> 100 µM		> 100 µM	> 100 µM	> 100 µM	> 100 µM	> 100 µM	> 100 µM	> 100 µM	> 100 µM	> 100 µM	> 100 µM	> 100 µM	> 100 µM
CC(C)(CO)NC(=O)Nc1c(C(F)(F)F)cc(-c2ccccc2)[nH]c1=O	> 100 µM	> 100 µM	> 100 µM		> 100 µM		> 100 µM	> 100 µM	> 100 µM	> 100 µM	> 100 µM	> 100 µM	> 100 µM	> 100 µM	> 100 µM		> 100 µM	> 100 µM
CCN(CC)CC(C(=O)Nc1c(C)cccc1C)/C(C)=N\NC(=O)c1ccncc1 (stereo unspecified)		> 100 µM	> 100 µM	> 100 µM	> 100 µM		> 100 µM	> 100 µM	> 100 µM		> 100 µM	> 100 µM		> 100 µM	> 100 µM	> 100 µM	> 100 µM	> 100 µM
CC1(C)OC(=O)C2(O1)C(=O)C1CCCCC12 (stereo unspecified)	> 100 µM	> 100 µM	> 100 µM		> 100 µM	> 100 µM	> 100 µM	> 100 µM		> 100 µM		> 100 µM	> 100 µM	> 100 µM	> 100 µM		> 100 µM	> 100 µM
O=C(CNC(=O)OCc1ccccc1)NCCCCC(NC(=O)OCc1ccccc1)C(=O)NC(CCCCNC(=O)CNC(=O)OCc1ccccc1)C(=O)OCc1ccccc1 (stereo unspecified)	> 62.5 µM	> 62.5 µM	> 62.5 µM	> 62.5 µM	> 62.5 µM	> 62.5 µM	> 62.5 µM	> 62.5 µM			> 62.5 µM	> 62.5 µM	> 62.5 µM	> 62.5 µM			> 62.5 µM	
CC(C)(C)[Si](C)(C)OCCOCn1cc(F)c(=O)[nH]c1=O	> 100 µM	> 100 µM	> 100 µM	> 100 µM	> 100 µM	> 100 µM	> 100 µM	> 100 µM		> 100 µM	> 100 µM	> 100 µM	> 100 µM	> 100 µM	> 100 µM	> 100 µM	> 100 µM	> 100 µM

Source: PubChem BioAssay (NCI)
